Reference: ChEMBL document CHEMBL4177736, “Monoterpene indole alkaloid azine derivatives as MDR reversal agents” (Bioorg Med Chem, 2018)
The source made the active and inactive calls. The rule behind the calls is not given here.

What was measured:
BHK-21 [1] = experiment: Cytotoxicity against MRP1-expressing BHK21 cells assessed as growth inhibition at 20 uM after 72 hrs by MTT assay; type: functional; settings: Mesocricetus auratus; for inhibition of growth at 20 µM: BHK-21, 72 h, read-out: GI
BHK-21 [2] = experiment: Cytotoxicity against wild type BHK21 cells assessed as reduction in cell viability at 20 uM after 72 hrs by MTT assay; type: cell-based, Mesocricetus auratus; settings: hamster, bhk-21, 72 h
NIH3T3 [3] = experiment: Cytotoxicity against MDR1-expressing mouse NIH/3T3 cells assessed as growth inhibition at 20 uM after 72 hrs by MTT assay; type: functional, cell-based
NIH3T3 [4] = experiment: Cytotoxicity against mouse NIH/3T3 cells assessed as reduction in cell viability at 20 uM after 72 hrs by MTT assay; type: cell-based; settings: nih3t3, 72 h
MRP1 [5] = target: T1, MRP1 (Homo sapiens, UniProt P33527); experiment: (§1) Inhibition of MRP1 (unknown origin) expressed in BHK21 cells assessed as GSH efflux at 20 uM incubated for 3 hrs measured every 30 secs for 2 mins by GSH reductase enzyme based assay (reference value: 100%); type: cell-based; settings: BHK21 cells expressing MRP1, probe GSH
MRP1 [6] = target: T1, MRP1; experiment: Inhibition of MRP1 (unknown origin) expressed in HEK293FlpIN cells assessed as reduction in calcein-AM efflux at 20 uM incubated for 30 mins by flow cytometric analysis relative to control; type: cell-based; settings: HEK293FlpIN cells expressing MRP1, probe calcein-AM
[7] = Inhibition of P-gp (unknown origin) expressed in mouse NIH/3T3 cells assessed as reduction in rhodamine 123 efflux at 20 uM incubated for 30 mins by flow cytometric analysis relative to control; type: cell-based; settings: Homo sapiens
BCRP (ABCG2) = target: T2, BCRP (ABCG2) (Homo sapiens, UniProt Q9UNQ0); experiment: Inhibition of BCRP (unknown origin) expressed in HEK293 cells assessed as reduction in mitoxantrone efflux at 20 uM incubated for 30 mins by flow cytometric analysis relative to control; type: cell-based; settings: HEK293 cells expressing BCRP, probe mitoxantrone
T2 sequence (Q9UNQ0 whole entry): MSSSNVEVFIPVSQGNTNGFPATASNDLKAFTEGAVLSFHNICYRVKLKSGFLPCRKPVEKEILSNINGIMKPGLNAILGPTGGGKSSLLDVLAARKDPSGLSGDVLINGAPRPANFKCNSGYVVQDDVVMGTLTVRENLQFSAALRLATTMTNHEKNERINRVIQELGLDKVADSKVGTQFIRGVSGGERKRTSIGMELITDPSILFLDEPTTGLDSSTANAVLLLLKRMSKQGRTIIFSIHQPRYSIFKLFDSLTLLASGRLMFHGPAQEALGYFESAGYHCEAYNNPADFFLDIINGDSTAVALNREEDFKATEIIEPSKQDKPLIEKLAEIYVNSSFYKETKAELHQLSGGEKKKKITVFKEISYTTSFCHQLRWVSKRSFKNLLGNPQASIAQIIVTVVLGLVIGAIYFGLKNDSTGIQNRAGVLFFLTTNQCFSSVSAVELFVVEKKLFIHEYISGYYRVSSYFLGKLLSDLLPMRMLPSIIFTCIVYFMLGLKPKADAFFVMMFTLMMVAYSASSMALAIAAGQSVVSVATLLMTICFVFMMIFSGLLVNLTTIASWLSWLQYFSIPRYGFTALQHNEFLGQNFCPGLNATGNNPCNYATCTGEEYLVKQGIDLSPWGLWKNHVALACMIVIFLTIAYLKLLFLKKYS

[8] = target: T3, Multidrug resistance-associated protein 1 (Homo sapiens, UniProt P33527); experiment: Inhibition of MRP1 (unknown origin) expressed in HEK293FlpIN cells assessed as reduction in calcein-AM efflux incubated for 30 mins by flow cytometric analysis; type: cell-based
BHK-21 [9] = experiment: Cytotoxicity against MRP1-expressing BHK21 cells assessed as cell death after 72 hrs by MTT assay; type: functional, cell-based; settings: Mesocricetus auratus, BHK-21, 72 h
BHK-21 [10] = experiment: Resistance ratio of EC50 for MRP1-expressing BHK21 cells to EC50 for wild type BHK21 cells; type: functional, Mesocricetus auratus
[11] = target: T3, Multidrug resistance-associated protein 1; experiment: as §1; type: cell-based; settings: 3 h, 20 µM

T1 sequence (P33527 whole entry): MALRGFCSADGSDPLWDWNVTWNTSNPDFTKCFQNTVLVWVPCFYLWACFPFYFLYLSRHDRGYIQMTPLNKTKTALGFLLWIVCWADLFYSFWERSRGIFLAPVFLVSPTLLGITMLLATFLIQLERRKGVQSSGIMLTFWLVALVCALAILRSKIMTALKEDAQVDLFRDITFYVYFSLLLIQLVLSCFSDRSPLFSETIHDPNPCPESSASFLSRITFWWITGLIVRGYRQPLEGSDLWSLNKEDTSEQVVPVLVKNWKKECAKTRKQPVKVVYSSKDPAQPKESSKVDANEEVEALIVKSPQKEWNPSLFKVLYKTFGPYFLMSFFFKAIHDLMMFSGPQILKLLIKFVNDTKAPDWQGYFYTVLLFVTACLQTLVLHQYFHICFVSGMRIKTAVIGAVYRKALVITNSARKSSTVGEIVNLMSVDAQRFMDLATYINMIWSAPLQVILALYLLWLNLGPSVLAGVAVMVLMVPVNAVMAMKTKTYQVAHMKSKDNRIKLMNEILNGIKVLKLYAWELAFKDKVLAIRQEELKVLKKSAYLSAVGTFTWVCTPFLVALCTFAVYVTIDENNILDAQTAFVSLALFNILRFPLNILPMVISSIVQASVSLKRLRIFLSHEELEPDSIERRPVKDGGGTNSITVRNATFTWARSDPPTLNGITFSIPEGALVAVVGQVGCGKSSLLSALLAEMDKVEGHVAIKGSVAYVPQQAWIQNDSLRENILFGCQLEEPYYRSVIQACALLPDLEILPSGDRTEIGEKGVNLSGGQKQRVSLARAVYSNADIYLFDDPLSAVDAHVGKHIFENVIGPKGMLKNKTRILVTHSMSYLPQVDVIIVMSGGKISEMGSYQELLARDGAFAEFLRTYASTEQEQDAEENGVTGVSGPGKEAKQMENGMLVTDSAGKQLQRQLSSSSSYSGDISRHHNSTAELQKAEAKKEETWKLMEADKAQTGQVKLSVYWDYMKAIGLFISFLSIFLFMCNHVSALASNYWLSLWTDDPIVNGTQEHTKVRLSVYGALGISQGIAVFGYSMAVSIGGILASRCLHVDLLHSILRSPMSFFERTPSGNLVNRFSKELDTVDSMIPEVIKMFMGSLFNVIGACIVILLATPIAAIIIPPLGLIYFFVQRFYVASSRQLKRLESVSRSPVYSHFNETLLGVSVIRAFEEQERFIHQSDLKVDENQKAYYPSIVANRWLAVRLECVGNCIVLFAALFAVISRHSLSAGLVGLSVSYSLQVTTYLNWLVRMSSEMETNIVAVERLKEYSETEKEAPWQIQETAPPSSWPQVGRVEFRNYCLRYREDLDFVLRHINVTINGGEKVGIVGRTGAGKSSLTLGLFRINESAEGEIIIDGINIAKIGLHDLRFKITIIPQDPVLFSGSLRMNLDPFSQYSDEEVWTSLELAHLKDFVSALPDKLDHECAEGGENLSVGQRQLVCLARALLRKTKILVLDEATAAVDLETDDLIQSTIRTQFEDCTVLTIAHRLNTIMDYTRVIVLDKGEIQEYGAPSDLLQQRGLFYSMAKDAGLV
T3 sequence (P33527 whole entry): as above

Row | Structure (SMILES) | inhibition of growth at 20 µM (BHK-21 [1]) [%] | Activity (BHK-21 [2]) | growth inhibition (GI) (NIH3T3 [3]) | Activity (NIH3T3 [4]) | inhibition at 3 h, 20 µM (MRP1 [5]) [%] | inhibition at 0.5 h, 20 µM (MRP1 [6]) [%] | inhibition [7] [%] | inhibition at 0.5 h, 20 µM (BCRP (ABCG2)) [%] | IC50 [8] [µM] | inhibition (INH) ([8]; human, 0.5 h) | growth inhibition (GI) (BHK-21 [1]) | EC50 (BHK-21 [9]) [µM] | Ratio EC50 (BHK-21 [10]) | inhibition (INH) [11]
1 | CC[C@H]1CN(C)[C@H]2Cc3c([nH]c4ccccc34)/C(=N/N=C\c3ccc[nH]3)C[C@H]1[C@H]2C(=O)OC | > 70 | Non-Toxic | Active | Non-Toxic | 63 to 75 | 56 | 27.6 | 13.5 | – | – | – | – | – | –
2 | CC[C@H]1CN(C)[C@H]2Cc3c([nH]c4ccccc34)/C(=N/N=C\C=C\c3ccccc3)C[C@H]1[C@H]2C(=O)OC | 90 to 98 | Non-Toxic | Active | Non-Toxic | – | 20.3 | 45.8 | -0.3 | – | – | – | – | – | –
3 | CC[C@H]1CN(C)[C@H]2Cc3c([nH]c4ccccc34)/C(=N/N=C\c3ccc(O)c(OC)c3)C[C@H]1[C@H]2C(=O)OC | 90 to 98 | Non-Toxic | Active | Non-Toxic | – | 80.7 | 38.6 | 10.5 | > 1 | Dose-dependent effect | – | – | – | –
4 | CC[C@@H]1CN(C)[C@H]2Cc3c([nH]c4ccccc34)/C(=N/N=C\c3ccc([N+](=O)[O-])cc3)C[C@H]1[C@H]2C(=O)OC | > 90 | Non-Toxic | Active | Non-Toxic | – | 23.4 | 14.7 | 2.9 | – | – | – | – | – | –
5 | CC[C@H]1CN(C)[C@H]2Cc3c([nH]c4ccccc34)/C(=N/N=C\C(C)(C)C)C[C@H]1[C@H]2C(=O)OC | – | Non-Toxic | Active | Non-Toxic | 63 to 75 | 15.9 | 10.3 | 2.4 | – | – | Active | 32 | 0.74 | –
6 | CC[C@@H]1CN(C)[C@H]2Cc3c([nH]c4ccccc34)/C(=N/N=C\C3CCCC3)C[C@H]1[C@H]2C(=O)OC | – | – | Active | Non-Toxic | – | 19.1 | 2.7 | -2.3 | – | – | – | – | – | –
7 | CC[C@H]1CN(C)[C@H]2Cc3c([nH]c4ccccc34)/C(=N/N=C\c3cccc(Br)c3)C[C@H]1[C@H]2C(=O)OC | 90 to 98 | Non-Toxic | Active | Non-Toxic | – | 12.8 | 28.6 | -3.1 | – | – | – | – | – | –
8 | CCC(/C=N\N=C1/C[C@@H]2[C@@H](CC)CN(C)[C@@H](Cc3c1[nH]c1ccccc31)[C@@H]2C(=O)OC)CC | – | Non-Toxic | Active | Non-Toxic | 63 to 75 | 30.3 | 26.5 | 8.2 | – | – | Active | 18 | 0.63 | –
9 | CC[C@@H]1CN(C)[C@H]2Cc3c([nH]c4ccccc34)/C(=N/N=C\c3cccc(Br)c3)C[C@H]1[C@H]2C(=O)OC | > 90 | Non-Toxic | Active | Non-Toxic | – | 12 | 11.4 | -2.4 | – | – | – | 16.5 | 0.73 | Not Active
10 | CCC(/C=N\N=C1/C[C@@H]2[C@H](CC)CN(C)[C@@H](Cc3c1[nH]c1ccccc31)[C@@H]2C(=O)OC)CC | – | Non-Toxic | Active | Non-Toxic | 63 to 75 | 26.4 | 2.8 | 0.9 | – | – | Active | 27.5 | 0.81 | –
